We go through two compounds from US20190054054A1, “Methods reducing or preventing oxidation of high density lipoprotein (HDL)” (Amarin Pharmaceuticals Ireland Limited, priority 2017, published 2019).

The nature of experiment [1]: Glucose-induced membrane lipid peroxidation (LOOH, CHOD-iodide assay) in DLPC/cholesterol vesicles (Examples 4 and 5). The settings on record: for inhibition of the peroxidative effects of glucose (LOOH formation) / effect on LOOH formation / lipid peroxidation (FIG. 3): 1:30 drug-to-phospholipid mole ratio; for effect on LOOH formation / lipid peroxidation (FIG. 3): glucose, 72- and 96-hour time points. It is filed as biochemical. How it is done:
Vitamin E (α-tocopherol) was also purchased from Sigma-Aldrich and prepared in ethanol at 1.0 mM (e=[…] at 294 nm) just prior to experimental use. […] All test compounds were further diluted in ethanol or aqueous buffer as needed. Glucose was prepared in saline buffer (0.5 mM HEPES, 154 mM NaCl, pH 7.3) at 11.0 mM (200 mg/dL). CHOD-iodide color reagent (stock) was prepared, with slight modification, as described by from El-Saadani et al. (J. […] Samples were shell-dried under nitrogen gas and placed under vacuum for 1 h to remove residual solvent. […] Lipid suspensions were then vortexed for 3 min at ambient temperature to form MLVs. All MLV samples were subjected to time-dependent autoxidation by incubating at 37° C. in an uncovered, shaking water bath. This method allows lipid peroxidation to occur gradually without requiring the use of exogenous initiators. Small aliquots (5-100 μL) of each sample were removed, immediately following MLV preparation (0 hour) and after exposing samples to oxidative conditions for 72 or 96 hour, and combined with 1.0 mL of activated CHOD-iodide color reagent. Aliquot volume was reduced with each successive time point to ensure that spectrophotometric readings were within the optimal adsorption range. Test samples were covered and incubated in darkness at room temperature for at least 4 hr. Sample absorbances were then measured against a CHOD blank at 365 nm using a Beckman DU-640 spectrophotometer. The CHOD colorimetric assay is based on the oxidation of iodide (I^−) by lipid hydroperoxide (LOOH) to form triiodide (I3^−), the quantity of which is directly proportional to the amount of LOOH present in the lipid sample. The molar absorptivity (ε) of I3^− is 2.46×10^4 M^−1 cm^−1 at 365 nm. An experiment was conducted to compare the ability of EPA to prevent lipid hydroperoxide formation in model membranes treated with glucose to two other 20-carbon fatty acids: eicosanoic acid (“EA,” also referred to as arachidic acid, C20:0) and eicosatrienoic acid (“ETE,” C20:3, n-3). All MLV samples were subjected to time-dependent autoxidation by incubating at 37° C. in an uncovered, shaking water bath. This method allows lipid peroxidation to occur gradually without requiring the use of exogenous initiators. Small aliquots (5-100 μL) of each sample were removed, immediately following MLV preparation (0 hr) and after exposing samples to oxidative conditions for 72 or 96 hr, and combined with 1.0 mL of activated CHOD-iodide color reagent. Aliquot volume was reduced with each successive time point to ensure that spectrophotometric readings were within the optimal adsorption range. Test samples were covered and incubated in darkness at room temperature for at least 4 hr. Sample absorbances were then measured against a CHOD blank at 365 nm using a Beckman DU-640 spectrophotometer. The CHOD colorimetric assay is based on the oxidation of iodide (I^−) by lipid hydroperoxide (LOOH) to form triiodide (I3^−), the quantity of which is directly proportional to the amount of LOOH present in the lipid sample. The molar absorptivity (ε) of I3^− is 2.46×10^4 M^−1 cm^−1 at 365 nm.

The test system of experiment [2] is rat renal glomerular endothelial cells. As to the kind of experiment: NO and ONOO^− release ex vivo from rat glomerular endothelial cells exposed to oxLDL and high glucose (Example 13). It is filed as cell-based. As to conditions: oxLDL 11 mg/dL and glucose 300 mg/dL, treatment 1 hr at 10.0 μM. How it is done:
Healthy male Wistar Kyoto (WKY) rats, aged 7-9 weeks and weighing 250±20 g, were obtained from inbred colonies (National Institutes of Health, Bethesda, Md.). Animals were housed in a controlled environment that provided food and water ad libitum prior to the study. […] Animals were sacrificed and tissue samples obtained immediately for experimentation. All procedures were conducted in accordance with standard Institutional Animal Care and Use Committee guidelines and conformed to the Guide for the Care and Use of Laboratory Animals published by the US National Institutes of Health.
EPA and DHA were purchased from Sigma-Aldrich (St. Louis, Mo.) and solubilized in ethanol to 1.0 mM under nitrogen atmosphere. […] The calcium ionophore (Cal), A23187, was purchased from Sigma-Aldrich and prepared in aqueous buffer to 1.0 mM. All test compounds were further diluted in ethanol or aqueous buffer as needed.
Venous blood from healthy normolipidemic volunteers was collected into Na-EDTA (1 mg/mL blood) vacuum tubes after a 12-hour fast. […] The LDL fraction was dialyzed for 96 hours against PBS containing 0.3 mM EDTA and stored at 4° C. until experimental use.
LDL was oxidized according to the methods of Huber et al. 16 Briefly, the purified LDL fraction was dialyzed against Tris/NaCl Buffer (50 mM Tris in 0.15 M NaCl, pH 8.0) to remove EDTA. Additional buffer was added to adjust the protein concentration to 30 mg/mL. LDL oxidation was initiated with 20 μM CuSO4 and monitored spectrophotometrically (234 nm) over a period of 24 hours until complete. The oxLDL was then dialyzed at 4° C. with 4 L Tris buffer, filtered with a 0.22 µm filter, and stored under nitrogen at 4° C.
Immediately after sacrificing the rats, kidneys were removed, cut into […] sections and transferred to a separate organ chamber containing Dulbecco's phosphate buffered saline ([…]) and […] glucose at pH 7.4.
Concurrent measurements of NO and ONOO^− were performed on intact glomerular (cortical zone) endothelial cells using tandem electrochemical nanosensors, as previously described (FIG. 45).
The NO/ONOO^− nanosensor was positioned near the surface of the endothelial cells using a computer-controlled M3301 micromanipulator (x-y-z resolution of 0.2 μm) and microscope (both from World Precision Instruments, Berlin, Germany) fitted with a CD camera. Each analyte was measured from amperograms and standard calibration curves collected under maximum current. […] After establishing a background current, maximal NO and ONOO^− release was induced by injecting Cal into the organ chamber using a nanoinjector (World Precision Instruments, Berlin Germany). Changes in current (proportional to the molar concentrations of NO or ONOO^− released) were monitored continuously immediately following Cal stimulation.
Data are presented as mean+standard deviation (SD) for (N) separate samples or experiments. Differences between groups were analyzed using the unpaired, two-tailed Student's t-test (for comparisons between only two groups) or ANOVA followed by Student-Newman-Keuls multiple comparisons post hoc analysis (for comparisons between three or more groups). Only differences with probability values less than 0.05 were considered significant.

For experiment [3] the following is noted: patients; clinical studies by others; cited from earlier work.

“Also recorded” adds a separate entry of the source.

As for `CC/C=C\C/C=C\C/C=C\C/C=C\C/C=C\CCCC(=O)O` [EPA, cis-5,8,11,14,17-eicosapentaenoic acid], the “inhibition of the peroxidative effects of glucose (LOOH formation)” value in experiment [1] (glucose 200 mg/dL, 72 hours) is 88%. Also, the “inhibition of the peroxidative effects of glucose (LOOH formation)” value in experiment [1] (glucose 200 mg/dL, 96 hours) stood at 86%. Further, in experiment [1], the “effect on LOOH formation / lipid peroxidation (FIG. 3)” value is “significantly inhibited LOOH formation”. Besides, the “membrane LOOH formation, dose dependence” value in experiment [1] (EPA at 1.0 and 5.0 μM, glucose-treated) is on record as “inhibit membrane LOOH formation in a dose-dependent manner”. Also, the “LOOH formation compared to vehicle only, glucose only, glucose and EA, or glucose and ETE” value in experiment [1] (Example 5, 72 and 96 hr) was “significantly less LOOH formation”. In addition, the “antioxidant effect, separate treatments” value in experiment [1] (each at 1.0 μM, glucose 200 mg/dL, 96 hours) was “separate and potent antioxidant effects”. In experiment [2], the “NO/ONOO^− Ratio” value amounted to 1.08. For the same compound, in experiment [2] (versus vehicle), the “increase in NO release” value came out at 205%, the “increase of the NO/ONOO^− ratio” value is “more than 4 fold” and the “reduction of ONOO^− release” value is reported as 27%. Further, the “triglycerides and oxidized LDL, Lp-PLA2, hsCRP as compared to placebo” value in experiment [3] is “significant reductions in levels of oxidized LDL, Lp-PLA2, and hsCRP; also recorded: significant reductions in triglycerides along with reduced levels of markers of inflammation”.

As to `Cc1c(C)c2c(c(C)c1O)CC[C@@](C)(CCC[C@H](C)CCC[C@H](C)CCCC(C)C)O2` [vitamin E, α-tocopherol], in experiment [1], the “effect on LOOH formation / lipid peroxidation (FIG. 3)” value is “no significant effect on lipid peroxidation”.
